The text below walks through data of paper PMC9145702, “Design, Synthesis and Evaluation of Fused Bicyclo[2.2.2]octene as a Potential Core Scaffold for the Non-Covalent Inhibitors of SARS-CoV-2 3CL^pro Main Protease” (Pharmaceuticals, 2022).

The structures appear in SMILES notation. pIC50: −log10 of the molar value. Where two headings read alike, the source gives them in different places.

The target of series [1] is SARS-CoV-2 3CL^pro main protease (Severe acute respiratory syndrome coronavirus 2, UniProt P0DTD1). The experiment in a line: FRET-based assay of SARS-CoV-2 3CL^pro main protease inhibition activity. It is filed as biochemical. The following applies: for first screening result (hit candidate): first FRET screening at 64 μM of each compound, before accounting for compound effect on fluorescence; for screening result after accounting for effect on measured fluorescence: 64 μM, difference between 3CL(+) and 3CL(-) fluorescence.

Series [2] relates to 3CL^pro. Details: method as in PMID 33817567. The following applies: compared with 11a; read-out: inhibition activity; cited from earlier work.

`O=C(NN1C(=O)C2C(C1=O)C1(c3ccccc3)C=CC2(NC(=O)c2ccccc2)C2C(=O)N(NC(=O)c3cccnc3)C(=O)C21)c1cccnc1` (stereo not drawn) [11b, N-[8-Phenyl-2,3,3a,4a,5,6,7,7a,8,8a-decahydro-1,3,5,7-tetraoxo-2,6-bis(3-pyridylcarboamino)-4,8-ethenobenzo[1,2-c:4,5-c′]dipyrrol-4(1H)-yl]benzamide]: the melting point was in the range of 278 to 282 °C.

In the case of `O=C(NC12C=CC(c3cccs3)(C3C(=O)N(NC(=O)c4ccccn4)C(=O)C31)C1C(=O)N(NC(=O)c3ccccn3)C(=O)C12)c1ccccc1` (stereo not drawn) [11f, N-[2,3,3a,4a,5,6,7,7a,8,8a-Decahydro-1,3,5,7-tetraoxo-2,6-bis(2-pyridylcarboamino)-8-(2-thienyl)-4,8-ethenobenzo[1,2-c:4,5-c′]dipyrrol-4(1H)-yl]benzamide], the melting point was 288 to 291 °C (dec.). The “first screening result (hit candidate)” value in series [1] is “candidate hit compounds”.

Consider `COc1ccc(C2=CC3(NC(=O)c4ccccc4)C4C(=O)N(NC(=O)c5ccccn5)C(=O)C4C2(C)C2C(=O)N(NC(=O)c4ccccn4)C(=O)C23)cc1` (stereo not drawn) [11l, N-[2,3,3a,4a,5,6,7,7a,8,8a-Decahydro-8-methyl-9-(4-methoxyphenyl)-1,3,5,7-tetraoxo-2,6-bis(2-pyridylcarboamino)-4,8-ethenobenzo[1,2-c:4,5-c′]dipyrrol-4(1H)-yl]benzamide], for which the melting point is 298 to 303 °C (dec.).

For `COc1ccc(C2=CC3(NC(=O)c4ccccc4)C4C(=O)N(NC(=O)c5ccncc5)C(=O)C4C2(C)C2C(=O)N(NC(=O)c4ccncc4)C(=O)C23)cc1` (stereo not drawn) [11n, N-[2,3,3a,4a,5,6,7,7a,8,8a-Decahydro-8-methyl-9-(4-methoxyphenyl)-1,3,5,7-tetraoxo-2,6-bis(4-pyridylcarboamino)-4,8-ethenobenzo[1,2-c:4,5-c′]dipyrrol-4(1H)-yl]benzamide], the melting point is 387 to 390 °C (dec.).

As to `O=C(NC12C=CC(c3ccco3)(C3C(=O)N(NC(=O)c4ccccn4)C(=O)C31)C1C(=O)N(NC(=O)c3ccccn3)C(=O)C12)c1ccccc1` (stereo not drawn) [11i, N-[8-(2-Furyl)-2,3,3a,4a,5,6,7,7a,8,8a-decahydro-1,3,5,7-tetraoxo-2,6-bis(2-pyridylcarboamino)-4,8-ethenobenzo[1,2-c:4,5-c′]dipyrrol-4(1H)-yl]benzamide], the melting point was in the range of 332 to 334 °C. In addition, in series [1], the “first screening result (hit candidate)” value is reported as “candidate hit compounds”.

In the case of `CC1=CC2(c3ccccc3)C3C(=O)N(NC(=O)c4cccnc4)C(=O)C3C1(NC(=O)c1ccccc1)C1C(=O)N(NC(=O)c3cccnc3)C(=O)C12` (stereo not drawn) [11e, N-[8-Phenyl-2,3,3a,4a,5,6,7,7a,8,8a-decahydro-10-methyl-1,3,5,7-tetraoxo-2,6-bis(3-pyridylcarboamino)-4,8-ethenobenzo[1,2-c:4,5-c′]dipyrrol-4(1H)-yl]benzamide], the melting point is 345 to 347 °C (dec.). For the same compound, in series [1], the pIC50 was around 3.70, the “screening result after accounting for effect on measured fluorescence” value is listed as “remained as hit candidates” and the “first screening result (hit candidate)” value was “candidate hit compounds”.

In turn, `O=C(NN1C(=O)C2C(C1=O)C1(c3ccccc3)C=CC2(NC(=O)c2ccccc2)C2C(=O)N(NC(=O)c3ccncc3)C(=O)C21)c1ccncc1` (stereo not drawn) [11c, N-[8-Phenyl-2,3,3a,4a,5,6,7,7a,8,8a-decahydro-1,3,5,7-tetraoxo-2,6-bis(4-pyridylcarboamino)-4,8-ethenobenzo[1,2-c:4,5-c′]dipyrrol-4(1H)-yl]benzamide] came in with a melting point of 289 to 293 °C.

Compound `O=C(NN1C(=O)C2C(C1=O)C1(c3cccs3)C=CC2(NC(=O)c2ccccc2)C2C(=O)N(NC(=O)c3ccncc3)C(=O)C21)c1ccncc1` (stereo not drawn) [11h, N-[2,3,3a,4a,5,6,7,7a,8,8a-Decahydro-1,3,5,7-tetraoxo-2,6-bis(4-pyridylcarboamino)-8-(2-thienyl)-4,8-ethenobenzo[1,2-c:4,5-c′]dipyrrol-4(1H)-yl]benzamide] had a melting point of 310 to 312 °C.

On to `CC1=CC2(c3ccccc3)C3C(=O)N(NC(=O)c4ccccn4)C(=O)C3C1(NC(=O)c1ccccc1)C1C(=O)N(NC(=O)c3ccccn3)C(=O)C12` (stereo not drawn) [11d, N-[8-Phenyl-2,3,3a,4a,5,6,7,7a,8,8a-decahydro-10-methyl-1,3,5,7-tetraoxo-2,6-bis(2-pyridylcarboamino)-4,8-ethenobenzo[1,2-c:4,5-c′]dipyrrol-4(1H)-yl]benzamide], for which the melting point was in the range of 271 to 274 °C.

With `O=C(NN1C(=O)C2C(C1=O)C1(c3ccco3)C=CC2(NC(=O)c2ccccc2)C2C(=O)N(NC(=O)c3cccnc3)C(=O)C21)c1cccnc1` (stereo not drawn) [11j, N-[8-(2-Furyl)-2,3,3a,4a,5,6,7,7a,8,8a-decahydro-1,3,5,7-tetraoxo-2,6-bis(3-pyridylcarboamino)-4,8-ethenobenzo[1,2-c:4,5-c′]dipyrrol-4(1H)-yl]benzamide], the melting point is 272 to 276 °C.

Turning to `COc1ccc(C2=CC3(NC(=O)c4ccccc4)C4C(=O)N(NC(=O)c5cccnc5)C(=O)C4C2(C)C2C(=O)N(NC(=O)c4cccnc4)C(=O)C23)cc1` (stereo not drawn) [11m, N-[2,3,3a,4a,5,6,7,7a,8,8a-Decahydro-8-methyl-9-(4-methoxyphenyl)-1,3,5,7-tetraoxo-2,6-bis(3-pyridylcarboamino)-4,8-ethenobenzo[1,2-c:4,5-c′]dipyrrol-4(1H)-yl]benzamide], the melting point was 365 to 369 °C (dec.).

Compound `O=C(NC12C=CC(c3ccccc3)(C3C(=O)N(NC(=O)c4ccccn4)C(=O)C31)C1C(=O)N(NC(=O)c3ccccn3)C(=O)C12)c1ccccc1` (stereo not drawn) [11a, N-[8-Phenyl-2,3,3a,4a,5,6,7,7a,8,8a-decahydro-1,3,5,7-tetraoxo-2,6-bis(2-pyridylcarboamino)-4,8-ethenobenzo[1,2-c:4,5-c′]dipyrrol-4(1H)-yl]benzamide] yielded a melting point of 263 to 265 °C. In addition, in series [1], the “screening result after accounting for effect on measured fluorescence” value is listed as “remained as hit candidates” and the “first screening result (hit candidate)” value is given as “candidate hit compounds”. In series [1] (FRET assay, isolated SARS-CoV-2 3CL^pro, compound concentrations 200, 100, 50 and 25 μM), this compound gave a pIC50 of 3.99.

`C/C(=N\NC(=O)c1cccnc1)C1=CC2(NC(=O)c3ccccc3)C3C(=O)N(NC(=O)c4cccnc4)C(=O)C3C1(C)C1C(=O)N(NC(=O)c3cccnc3)C(=O)C12` (stereo not drawn) [11o, N-[2,3,3a,4a,5,6,7,7a,8,8a-Decahydro-8-methyl-1,3,5,7-tetraoxo-2,6-bis(3-pyridyl-carboamino)-9-(1-(N-[3-pyridylcarbo]hydrazonyl)eth-1-yl)-4,8-ethenobenzo[1,2-c:4,5-c′]dipyrrol-4(1H)-yl]benzamide]: the melting point is 284 to 286 °C.

As for `Cc1c(O)cccc1C(=O)N[C@@H](CSc1ccccc1)[C@H](O)CN1C[C@H]2CCCC[C@H]2C[C@H]1C(=O)NC(C)(C)C` [nelfinavir], the pIC50 in series [2] was around 4.40.

Take `O=C(NN1C(=O)C2C(C1=O)C1(c3cccs3)C=CC2(NC(=O)c2ccccc2)C2C(=O)N(NC(=O)c3cccnc3)C(=O)C21)c1cccnc1` (stereo not drawn) [11g, N-[2,3,3a,4a,5,6,7,7a,8,8a-Decahydro-1,3,5,7-tetraoxo-2,6-bis(3-pyridylcarboamino)-8-(2-thienyl)-4,8-ethenobenzo[1,2-c:4,5-c′]dipyrrol-4(1H)-yl]benzamide]: the melting point is 259 to 262 °C (dec.).

`O=C(NN1C(=O)C2C(C1=O)C1(c3ccco3)C=CC2(NC(=O)c2ccccc2)C2C(=O)N(NC(=O)c3ccncc3)C(=O)C21)c1ccncc1` (stereo not drawn) [11k, N-[8-(2-Furyl)-2,3,3a,4a,5,6,7,7a,8,8a-decahydro-1,3,5,7-tetraoxo-2,6-bis(4-pyridylcarboamino)-4,8-ethenobenzo[1,2-c:4,5-c′]dipyrrol-4(1H)-yl]benzamide] registered a melting point of 309 to 311 °C.

What is called melting point is the temperature of the solid-liquid transition.
